Measured values taken from paper PMC11272821, “Mechanistic safety assessment via multi-omic characterisation of systemic pathway perturbations following in vivo MAT2A inhibition” (Archives of Toxicology, 2024).

Tested on: rat liver proteome
Test: Liver label-free quantitative proteomics
Format: in vivo
Procedure: Liver tissue were homogenized in PreOmics iST buffer (PreOmics) using a bead ruptor. […] Peptides were purified using PreOmics iST cartridges and vacuum-centrifuged to dryness. Peptides were subsequently reconstituted in 2 vol% ACN and 0.1 vol% formic acid for single-run LC–MS analysis. Peptides were analyzed using a Thermo EASY-nLC1200 coupled online to an Exploris 480 Mass Spectrometer equipped with a Nanospray Flex Ion Source integrated with a column oven (PRSO-V1, Sonation) and a FAIMS unit. Peptides were separated using a nonlinear gradient and analyzed by acquiring spectra through Data Independent Acquisition (DIA). Data was analyzed using Spectronaut V15.7.2 (Biognosys AG) direct DIA analysis using an isoform Rat database (UniProt downloaded 22.02.2021) consisting of 9,746 protein entries utilizing the Pulsar search engine. Analysis settings were maintained to factory settings and identification was set to 1% false discovery rate (FDR) for precursor and protein level. Additional information is provided in Supplementary M&M.
Data analysis was performed using R Statistical Software (version 4.3.0). Proteomics, transcriptomics and metabolomics expression changes were visualised using heatmaps showing log2 fold change relative to control. In the heatmaps missing values were highlighted in grey.
Proteomics Analysis. Liver tissue was placed in vials containing 1.4 mm zirconia beads and taken up in 500 µL of PreOmics iST buffer (PreOmics). In a cold room set to 4 °C, tissues were homogenized utilizing a bead Ruptor 12 by shaking for 30 seconds for a total of 5 times using ‘high’ setting. Lysate was normalized using BCA assay (Thermo Fisher Scientific), and subsequently incubated at 95 °C for 10 min for reduction, and alkylation of proteins. A total of 50 μg from each sample was subjected to enzymatic cleavage for 3 h by adding equal amounts of endoproteinase Lys-C and trypsin (ThermoFisher Scientific, # A40009) in a 1:50 (wt/wt) enzyme:protein ratio. De-salting and purification were performed according to the PreOmics iST protocol on a styrene divinylbenzene reversed-phase sulfonate sorbent. Purified peptides were vacuum-centrifuged to dryness and reconstituted in double-distilled water with 2 vol% ACN and 0.1 vol% formic acid (FA) for single-run LC-MS analysis.
Peptides were loaded onto a ReproSil-Pur 120 C18AQ 1.9 µm in-house packed to a 5 µm tip 75u ID × 360u × 50 cm column using Thermo EASY-nLC 1200 coupled online to an Exploris 480 Mass Spectrometer equipped with a Nanospray Flex Ion Source integrated with a column oven (PRSO-V1, Sonation) maintained at 50 °C. Peptides were separated using a nonlinear gradient: Mobile phase A was 0.1 vol% FA and 3 vol% acetonitrile (ACN) in water, Mobile phase B was 90 vol% ACN and 0.1 vol % FA. The gradient was operated at 250 nL/min flowing 3 vol% B for 3 min, 3 to 5 vol% B over 3 min, 5 to 17 vol % B over 120 min, 17 to 24 vol % B over 26 min, 24 to 30 vol% B over 14 min, 30 to 85 vol% B over 3 min.

Cn1cc2cc(-c3cc4[nH]nc(C5CC5)c4n(-c4ccc(OC(F)F)cc4)c3=O)ccc2n1 [AZ’9567]
Hexa Log2FC (liver protein, 10mg/kg): -0.7
Hfe Log2FC (liver protein, 10mg/kg): 1.0
Hmgcs1 Log2FC (liver protein, 10mg/kg): 1.1
Hmgn2 Log2FC (liver protein, 10mg/kg): 1.0
Hnrnpa1 Log2FC (liver protein, 10mg/kg): 1.1
Hsd17b7 Log2FC (liver protein, 10mg/kg): 0.6
Idi1 Log2FC (liver protein, 10mg/kg): 0.9
Igf1 Log2FC (liver protein, 10mg/kg): -1.2
Kalrn Log2FC (liver protein, 10mg/kg): 0.6
Lipa Log2FC (liver protein, 10mg/kg): -0.8
Lrrc8d Log2FC (liver protein, 10mg/kg): 1.0
Lyrm2 Log2FC (liver protein, 10mg/kg): 0.9
Mat2a Log2FC (liver protein, 10mg/kg): 0.7
Mat2b Log2FC (liver protein, 10mg/kg): -2.4
Me1 Log2FC (liver protein, 10mg/kg): -1.5
Mettl7b Log2FC (liver protein, 10mg/kg): -0.8
Mettl26 Log2FC (liver protein, 10mg/kg): -1.6
Minpp1 Log2FC (liver protein, 10mg/kg): 1.1
Mospd1 Log2FC (liver protein, 10mg/kg): -0.7
Mt1 Log2FC (liver protein, 10mg/kg): 5.3
Mtr Log2FC (liver protein, 10mg/kg): 1.1
Mybbp1a Log2FC (liver protein, 10mg/kg): 1.1
Ncl Log2FC (liver protein, 10mg/kg): 0.8
Nob1 Log2FC (liver protein, 10mg/kg): 0.8
Orm1 Log2FC (liver protein, 10mg/kg): 1.2
Paics Log2FC (liver protein, 10mg/kg): 0.8
Pcyt1a Log2FC (liver protein, 10mg/kg): 0.6
Pklr.1 Log2FC (liver protein, 10mg/kg): -0.7
Prmt1 Log2FC (liver protein, 10mg/kg): 0.9
Pspc1 Log2FC (liver protein, 10mg/kg): 0.8
Ptprs Log2FC (liver protein, 10mg/kg): -1.3
Pum3 Log2FC (liver protein, 10mg/kg): 0.9
Rbm3 Log2FC (liver protein, 10mg/kg): 1.0
Rgn Log2FC (liver protein, 10mg/kg): -0.6
Rmdn1 Log2FC (liver protein, 10mg/kg): 0.7
S1pr1 Log2FC (liver protein, 10mg/kg): -0.6
Scd1 Log2FC (liver protein, 10mg/kg): -1.8
Sh3glb1 Log2FC (liver protein, 10mg/kg): 0.6
Sirt2 Log2FC (liver protein, 10mg/kg): 0.9
Slc6a13 Log2FC (liver protein, 10mg/kg): -1.3
Slc39a4 Log2FC (liver protein, 10mg/kg): -2.2
Sqle Log2FC (liver protein, 10mg/kg): 0.6
Srebf1 Log2FC (liver protein, 10mg/kg): 1.2
Sts Log2FC (liver protein, 10mg/kg): -0.7
Tat Log2FC (liver protein, 10mg/kg): -1.7
Tceanc2 Log2FC (liver protein, 10mg/kg): 1.4
Thg1l Log2FC (liver protein, 10mg/kg): 1
Tpmt Log2FC (liver protein, 10mg/kg): -1.2
Tspo Log2FC (liver protein, 10mg/kg): 2
Txnrd2 Log2FC (liver protein, 10mg/kg): -0.7
Ube2f Log2FC (liver protein, 10mg/kg): 0.9
Ugt2b1 Log2FC (liver protein, 10mg/kg): -1.6
Wdr45 Log2FC (liver protein, 10mg/kg): -0.9
Ythdc1 Log2FC (liver protein, 10mg/kg): 0.7
A2m Log2FC (liver protein, 30mg/kg): 3.7
Abcb1 Log2FC (liver protein, 30mg/kg): 2
Abhd1 Log2FC (liver protein, 30mg/kg): -1.5
Acaca Log2FC (liver protein, 30mg/kg): -1.2
Acbd4 Log2FC (liver protein, 30mg/kg): -0.6
Acly Log2FC (liver protein, 30mg/kg): -0.9
Acsl1 Log2FC (liver protein, 30mg/kg): -0.8
Acsl3 Log2FC (liver protein, 30mg/kg): -0.9
Acsl5 Log2FC (liver protein, 30mg/kg): -0.6
Acsm2 Log2FC (liver protein, 30mg/kg): 1.4
Akap5 Log2FC (liver protein, 30mg/kg): -1.1
Aldh1a1 Log2FC (liver protein, 30mg/kg): 2.0
Aldh1a7 Log2FC (liver protein, 30mg/kg): 1.7
Aldh16a1 Log2FC (liver protein, 30mg/kg): -0.5
Alpl Log2FC (liver protein, 30mg/kg): 1.8
Als2 Log2FC (liver protein, 30mg/kg): -1.1
Anpep Log2FC (liver protein, 30mg/kg): 1.4
Aox1 Log2FC (liver protein, 30mg/kg): -1.2
Apeh Log2FC (liver protein, 30mg/kg): -0.7
Apoc1 Log2FC (liver protein, 30mg/kg): -1.1
Aqp8 Log2FC (liver protein, 30mg/kg): 1.0
Asns Log2FC (liver protein, 30mg/kg): 1.0
Baat Log2FC (liver protein, 30mg/kg): -0.9
Banf1 Log2FC (liver protein, 30mg/kg): 0.9
Bhmt2 Log2FC (liver protein, 30mg/kg): 1.1
Bhmt Log2FC (liver protein, 30mg/kg): 1.8
Brix1 Log2FC (liver protein, 30mg/kg): 0.9
Ca5a Log2FC (liver protein, 30mg/kg): 0.9
Carnmt1 Log2FC (liver protein, 30mg/kg): -1.3
Cbs Log2FC (liver protein, 30mg/kg): -2.8
Ccnd1 Log2FC (liver protein, 30mg/kg): 16.3
Cdh1 Log2FC (liver protein, 30mg/kg): 0.8
Cdo1 Log2FC (liver protein, 30mg/kg): -4.1
Ces2c Log2FC (liver protein, 30mg/kg): 1.7
Cfdp1 Log2FC (liver protein, 30mg/kg): 0.5
Chid1 Log2FC (liver protein, 30mg/kg): 1.0
Comt Log2FC (liver protein, 30mg/kg): -0.6
Coq4 Log2FC (liver protein, 30mg/kg): 0.7
Csad Log2FC (liver protein, 30mg/kg): -1.1
Ctbs Log2FC (liver protein, 30mg/kg): -0.7
Cyp2c23 Log2FC (liver protein, 30mg/kg): -0.9
Cyp4a2 Log2FC (liver protein, 30mg/kg): 1.3
Cyp4a10 Log2FC (liver protein, 30mg/kg): 1.1
Dbnl Log2FC (liver protein, 30mg/kg): 0.7
Dcakd Log2FC (liver protein, 30mg/kg): 1.3
Dkc1 Log2FC (liver protein, 30mg/kg): 0.6
Dmgdh Log2FC (liver protein, 30mg/kg): 0.7
Dohh Log2FC (liver protein, 30mg/kg): 0.7
Eif4ebp1 Log2FC (liver protein, 30mg/kg): 1.0
Enpep Log2FC (liver protein, 30mg/kg): -1.2
Fabp4 Log2FC (liver protein, 30mg/kg): 1.1
Fabp5 Log2FC (liver protein, 30mg/kg): -1.0
Fads1 Log2FC (liver protein, 30mg/kg): -1.6
Fasn Log2FC (liver protein, 30mg/kg): -0.7
Fdft1 Log2FC (liver protein, 30mg/kg): 1.1
Fdps Log2FC (liver protein, 30mg/kg): 0.5
Fgr Log2FC (liver protein, 30mg/kg): 1.8
Gimd1 Log2FC (liver protein, 30mg/kg): -0.7
Gmpr Log2FC (liver protein, 30mg/kg): 0.8
Gnl3 Log2FC (liver protein, 30mg/kg): 0.8
Gnmt Log2FC (liver protein, 30mg/kg): 1.7
Gpcpd1 Log2FC (liver protein, 30mg/kg): 1.8
Gstm1 Log2FC (liver protein, 30mg/kg): -0.8
Gstm2 Log2FC (liver protein, 30mg/kg): -0.9
Gtpbp4 Log2FC (liver protein, 30mg/kg): 0.8
Hexa Log2FC (liver protein, 30mg/kg): -0.6
Hfe Log2FC (liver protein, 30mg/kg): 1.0
Hmgcs1 Log2FC (liver protein, 30mg/kg): 1.6
Hmgn2 Log2FC (liver protein, 30mg/kg): 1.2
Hnrnpa1 Log2FC (liver protein, 30mg/kg): 1.5
Hsd17b7 Log2FC (liver protein, 30mg/kg): 0.6
Idi1 Log2FC (liver protein, 30mg/kg): 1.3
Igf1 Log2FC (liver protein, 30mg/kg): -1.6
Kalrn Log2FC (liver protein, 30mg/kg): 0.6
Lipa Log2FC (liver protein, 30mg/kg): -0.5
Lrrc8d Log2FC (liver protein, 30mg/kg): 0.8
Lyrm2 Log2FC (liver protein, 30mg/kg): 0.7
Mat1a Log2FC (liver protein, 30mg/kg): 0.6
Mat2a Log2FC (liver protein, 30mg/kg): 0.8
Mat2b Log2FC (liver protein, 30mg/kg): -2.7
Me1 Log2FC (liver protein, 30mg/kg): -1.0
Mettl7b Log2FC (liver protein, 30mg/kg): -1.0
Mettl26 Log2FC (liver protein, 30mg/kg): -1.8
Minpp1 Log2FC (liver protein, 30mg/kg): 1.5
Mospd1 Log2FC (liver protein, 30mg/kg): -0.7
Mt1 Log2FC (liver protein, 30mg/kg): 6.5
Mtr Log2FC (liver protein, 30mg/kg): 1.1
Mybbp1a Log2FC (liver protein, 30mg/kg): 1.0
Ncl Log2FC (liver protein, 30mg/kg): 0.8
Nob1 Log2FC (liver protein, 30mg/kg): 0.9
Orm1 Log2FC (liver protein, 30mg/kg): 1.5
Paics Log2FC (liver protein, 30mg/kg): 0.7
Pcyt1a Log2FC (liver protein, 30mg/kg): 0.8
Pklr.1 Log2FC (liver protein, 30mg/kg): -1.1
Prmt1 Log2FC (liver protein, 30mg/kg): 0.7
Pspc1 Log2FC (liver protein, 30mg/kg): 0.7
Ptprs Log2FC (liver protein, 30mg/kg): -1.0
Pum3 Log2FC (liver protein, 30mg/kg): 1.0
Rbm3 Log2FC (liver protein, 30mg/kg): 1.0
Rgn Log2FC (liver protein, 30mg/kg): -0.7
Rmdn1 Log2FC (liver protein, 30mg/kg): 0.8
S1pr1 Log2FC (liver protein, 30mg/kg): -0.8
Scd1 Log2FC (liver protein, 30mg/kg): -3.2
Sh3glb1 Log2FC (liver protein, 30mg/kg): 0.8
Sirt2 Log2FC (liver protein, 30mg/kg): 0.5
Slc6a13 Log2FC (liver protein, 30mg/kg): -1.0
Slc22a8 Log2FC (liver protein, 30mg/kg): -1.4
Slc39a4 Log2FC (liver protein, 30mg/kg): -2.8
Sqle Log2FC (liver protein, 30mg/kg): 0.8
Srebf1 Log2FC (liver protein, 30mg/kg): 1.3
Sts Log2FC (liver protein, 30mg/kg): -0.6
Tat Log2FC (liver protein, 30mg/kg): -1.6
Tceanc2 Log2FC (liver protein, 30mg/kg): 1.3
Thg1l Log2FC (liver protein, 30mg/kg): 0.6
Tpmt Log2FC (liver protein, 30mg/kg): -1.4
Tspo Log2FC (liver protein, 30mg/kg): 1.9
Txnrd2 Log2FC (liver protein, 30mg/kg): -0.6
Ube2f Log2FC (liver protein, 30mg/kg): 0.6
Ugt2b1 Log2FC (liver protein, 30mg/kg): -1.1
Wdr45 Log2FC (liver protein, 30mg/kg): -1.1
Ythdc1 Log2FC (liver protein, 30mg/kg): 0.5
mvd Log2FC (liver protein, 30mg/kg): 0.9
differentially expressed liver proteins vs vehicle control (middle dose (10 mg/kg BID), adjusted p < 0.05 and Log2 FC > 0.5 or < −0.5): 467
